Read-outs that look alike come from different tables or passages of the source.
Key:
[1] = Acute toxicity in the mouse; conditions: in vivo, oral (gavage), Chbb:NMRI(SPF) mice of both sexes, deaths within 14 days, read-out: Akute Toxizität Maus [LD50]
Description: 4. Akute Toxizität an der Maus
Die Bestimmung der akuten Toxizität erfolgte an Chbb:NMRI (SPF)-Mäusen beider Geschlechter mit einem mittleren Gewicht von 20 g. Die Prüfsubstanz wurde als Verreibung in 1 %iger Methylzellulose (0,5 ml/10 g Tier) per Schlundsonde verabfolgt. Die Berechnung der LD50 erfolgte (soweit möglich) nach LITCHFIELD u. WILCOXON (J. Pharmacol. exp. Therap. 96, 99 (1949)) aus dem Prozentsatz der Tiere, die nach den verschiedenen Dosen innerhalb von 14 Tagen verstarben.

[2] = tested on: Körpertemperatur der Ratte; test: Effect on body temperature of the rat (rectal temperature lowering); type: in vivo; conditions: oral (gavage), Chbb:THOM rats, dose lowering body temperature by 1,5°C, read-out: Körpertemperatursenkg. Ratte [ED-1,5°C]
Description: 3. Wirkung auf die Körpertemperatur der Ratte
Die Prüfung der temperatursenkenden Wirkung erfolgte durch; die Kontrolle des Verlaufes der rektal gemessenen Körper- temperatur von Chbb:THOM-Ratten mit einem Gewicht zwischen 125-150 g über im Rektum verweilende Thermoelemente. Die Prüfsubstanz wurde als Verreibung in 1 %iger Methylzellulose (1,0 ml/100 g Tier) per Schlundsonde beigebracht. Aus den nach Gabe der verschiedenen Dosen der Prüfsubstanz gewonnenen Werten für die mittlere maximale Temperatursenkung wurde nach linearer Regressionsanalyse nach LINDER (s.o.) eine ED-1,5°C als jene Dosis berechnet, die eine Senkung der Körpertemperatur um 1,5°C bewirkte.

Wärmeschmerz der Maus = test: Analgesic effect against heat pain in the mouse (hot plate, modified CHEN and BECKMAN); type: in vivo; conditions: oral (gavage), male Chbb:NMRI(SPF) mice, plate 52°C, dose giving 100 % prolongation of reaction time, read-out: Analgesie Maus "hot plate" [ED100]
Description: 2) Wirkung gegen den Wärmeschmerz der Maus
Die Prüfung erfolgte mit Hilfe einer Modifikation der Ver- suchsanordnung nach CHEN u. BECKMAN (Science 113, 631 (1951) an männlichen Chbb:NMRI(SPF)-Mäusen mit einem mittleren Gewicht von 20 g. Die "heiße Platte" bestand aus Aluminium und hatte eine Oberflächentemperatur von 52°C. ;
Die Prüfsubstanz wurde als Verreibung in 1 %iger-Methylzellulose (0,1 ml/10 g maus) per Schlundsonde beigebracht. Vor der Behandlung mit Prüfsubstanz wurden die Tiere im Abstand von 30 min. zweimal auf die heiße Platte gesetzt. Es wurde ihre individuelle Reaktionszeit ermittelt. Nach Gabe der Prüfsubstanz wurde in Abständen von 30 min. die Reaktionszeit erneut gemessen.
Aus der mit den verschiedenen Dosen der Prüfsubstanz erzielten gemittelten maximalen Verlängerung der Reaktionszeit wurde nach linearer Regressionsanalyse nach LINDER (s.o.) eine ED100 mit den Vertrauensgrenzen nach FIELLER (s.o.) als die Dosis berechnet, die zu einer 100 %igen Verlängerung der Reaktionszeit führte.

[3] = tested on: Entzündungsschmerz der Ratte; test: Analgesic effect against inflammatory pain in the rat (RANDALL-SELITTO, yeast-inflamed paw, pain threshold); type: in vivo; conditions: oral (gavage), male Chbb:THOM rats, dose raising the pain threshold by 50 % versus controls
Description: 1) Wirkung gegen den Entzündungsschmerz der Ratte
Die Versuchsanordnung entsprach der von RANDALL-SELITTO (Arch. int. Pharmacodyn. 111, 409 (1957) angegebenen.
Männliche Chbb:THOM-Ratten mit einem Gewicht zwischen 100 und 130 g erhielten eine subplantare Injektion von 0,1 ml einer 5%igen Suspension von Hefezellen in 5,55 %iger Glukoselösun^g in eine Hinterpfote. […] 2 1/4 Stunden nach der Injektion des Phlogisticums erhielten die Tiere verschiedene Dosen der Prüfsubstanz als Verreibung in 1 %iger Methylzellulose (1 ml/100 g Tier) per Schlundsonde beigebracht. Kontrolltiere erhielten entsprechende Volumina des Vehikels. ― 90 bzw. 45 min nach Applikation der Prüfsubstanz (d.h. 3 Stunden nach der subplantaren Injektion der Hefesuspension) wurde bei den Ratten die Schmerzschwelle in g Auflagedruck/Pfote bestimmt.
Aus der nach den verschiedenen Dosen der Prüfsubstanz ge- i messenen Schmerzschwelle wurde nach linearer Regressionsanalyse nach LINDER (Statistische Methoden, 4. Aufl. pp. 148-162, Birkhäuser, Basel 1964) eine ED50 mit den Vertrauensgrenzen nach FIELLER (Quart. J. Pharm. Pharmacol. 17, 117 (1944) als jene Dosis ermittelt, die eine Anhebung der Schmerzschwelle um 50 % gegenüber der der Kontrollen bewirkte.

`COc1cc2sc(N)nc2cc1Cl` [2-Amino-5-chlor-6-methoxy-benzothiazol] showed an LD50 at 336 h [1] of 3050 mg/kg, an ED (-1.5 degC) [2] of 101 mg/kg and an ED100 (Wärmeschmerz der Maus) of 144 mg/kg. It also gave an ED50 ([3]; 0.75 h, 45 min after application, read-out: Analgesie Ratte nach RANDALL-SELITTO 45 min nach Appl. [ED50]) of 79 mg/kg and an ED50 ([3]; 1.5 h, 90 min after application, read-out: Analgesie Ratte nach RANDALL-SELITTO 90 min nach Appl. [ED50]) of 80 mg/kg.
